According to US11285127B2, “Compositions and methods for lowering triglycerides without raising LDL-C levels in a subject on concomitant statin therapy” (Amarin Pharmaceuticals Ireland Limited, priority 2013, dated 2022):

System: patients with fasting triglyceride levels >200 mg/dl and <500 mg/dl despite statin therapy
Experiment: 12-week study: lipid profile (TC, LDL-C, HDL-C, non-HDL-C, VLDL-C, VLDL-TG, RLP-C)
Format: in vivo, human
Conditions: for Non-HDL-C, Diff from pbo (Hodges-Lehmann median difference) / Non-HDL-C, EOT (Week 12 endpoint) median / LDL-C Median % chg from BL / LDL-C, Diff from pbo (Hodges-Lehmann median difference) / LDL-C, EOT (Week 12 endpoint) median / Non-HDL-C Median % chg from BL / LDL-C Diff from pbo (median % chg, Hodges-Lehmann) / LDL-C EOT Median / Non-HDL-C Diff from pbo (median % chg, Hodges-Lehmann) / Non-HDL-C EOT Median: AMR 101 4 g + statin
From the text: Parameters (a)-(z) can be measured in accordance with any clinically acceptable methodology. For example, triglycerides, total cholesterol, HDL-C and fasting blood sugar can be sample from serum and analyzed using standard photometry techniques. VLDL-TG, LDL-C and VLDL-C can be calculated or determined using serum lipoprotein fractionation by preparative ultracentrifugation and subsequent quantitative analysis by refractometry or by analytic ultracentrifugal methodology. Apo A1, Apo B and hsCRP can be determined from serum using standard nephelometry techniques. Lipoprotein (a) can be determined from serum using standard turbidimetric immunoassay techniques. LDL particle number and particle size can be determined using nuclear magnetic resonance (NMR) spectrometry. Remnants lipoproteins and LDL-phospholipase A2 can be determined from EDTA plasma or serum and serum, respectively, using enzymatic immunoseparation techniques. Oxidized LDL, intercellular adhesion molecule-1 and interleukin-2 levels can be determined from serum using standard enzyme immunoassay techniques. These techniques are described in detail in standard textbooks, for example Tietz Fundamentals of Clinical Chemistry, 6th Ed. (Burtis, Ashwood and Borter Eds.), WB Saunders Company.
A multi-center, placebo-controlled, randomized, double-blind, 12-week study was performed to evaluate the efficacy and safety of >96% E-EPA in patients with fasting triglyceride levels >200 mg/dl and <500 mg/dl despite statin therapy (the mean of two qualifying entry values needed to be >185 mg/dl and at least one of the values needed to be >200 mg/dl). The primary objective of the study was to determine the efficacy of >96% E-EPA 2 g daily and 4 g daily, compared to placebo, in lowering fasting TG levels in patients with high risk for cardiovascular disease and with fasting TG levels 200 mg/dl and <500 mg/dl, despite treatment to LDL-C goal on statin therapy.
The secondary objectives of this study were the following: • 1. To determine the safety and tolerability of >96% E-EPA 2 g daily and 4 g daily; • 2. To determine the effect of >96% E-EPA on lipid and apolipoprotein profiles including total cholesterol (TC), non-high-density lipoprotein cholesterol (non-HDL-C), low density lipoprotein cholesterol (LDL-C), high density lipoprotein cholesterol (HDL-C), and […]; • 3. To determine the effect of >96% E-EPA on lipoprotein associated phospholipase A2 (Lp-PLA2) from baseline to week 12; • 4. To determine the effect of >96% E-EPA on low-density lipoprotein (LDL) particle number and size; • 5. To determine the effect of >96% E-EPA on oxidized LDL; • 6. To determine the effect of >96% E-EPA on fasting plasma glucose (FPG) and hemoglobin A1c (HbA1c); • 7. To determine the effect of >96% E-EPA on insulin resistance; • 8. To determine the effect of >96% E-EPA on high-sensitivity C-reactive protein (hsCRP); • 9. To determine the effects of >96% E-EPA 2 g daily and 4 g daily on the incorporation of fatty acids into red blood cell membranes and into plasma phospholipids; • 10. To explore the relationship between baseline fasting TG levels and the reduction in fasting TG levels; and • 11. To explore the relationship between changes of fatty acid concentrations in plasma and red blood cell membranes, and the reduction in fasting TG levels.
The primary efficacy variable for the double-blind treatment period was percent change in TG from baseline to Week 12 endpoint. […]

[1] = Diabetes No, Week 12 endpoint, MITT
[2] = Diabetes Yes, Week 12 endpoint, MITT
[3] = Non-statin Washout No, Week 12 endpoint, MITT
[4] = Non-statin Washout Yes, Week 12 endpoint, MITT
[5] = baseline TG tertile Highest (≥289.5 mg/dL), Week 12 endpoint, MITT
[6] = baseline TG tertile Lowest (<230.5 mg/dL), Week 12 endpoint, MITT
[7] = baseline TG tertile Middle (230.5 to <289.5 mg/dL), Week 12 endpoint, MITT
[8] = AMR101 4 g/d + statin, Week 12 endpoint, MITT
[9] = AMR101 4 g/d + statin, percent change from baseline to Week 12 endpoint, MITT
[10] = IPE 4 g/day (n = 216), 12 weeks, patients with lipoprotein data
[11] = IPE 4 g/day vs placebo, 12 weeks, Hodges-Lehmann median

`CC/C=C\C/C=C\C/C=C\C/C=C\C/C=C\CCCC(=O)OCC` [AMR101, ethyl eicosapentaenoate] was tested, and the “Non-HDL-C, Diff from pbo (Hodges-Lehmann median difference)” value (Atorva subgroup, MITT) was −13.5, the “Non-HDL-C, EOT (Week 12 endpoint) median” value (Atorva subgroup, MITT) was 122.0 and the “LDL-C Median % chg from BL” value (Rosuva subgroup, MITT) was −3.8%. The “LDL-C, Diff from pbo (Hodges-Lehmann median difference)” value (Rosuva subgroup, MITT) was −14.8, the “LDL-C, EOT (Week 12 endpoint) median” value (Rosuva subgroup, MITT) was 82.5 and the “Non-HDL-C Median % chg from BL” value (Rosuva subgroup, MITT) was −5.5%. For the same compound, the “Non-HDL-C, Diff from pbo (Hodges-Lehmann median difference)” value (Rosuva subgroup, MITT) was −20.0, the “Non-HDL-C, EOT (Week 12 endpoint) median” value (Rosuva subgroup, MITT) was 118.0 and the “LDL-C Median % chg from BL” value (Simva subgroup, MITT) was 1.5%. The “LDL-C, Diff from pbo (Hodges-Lehmann median difference)” value (Simva subgroup, MITT) was −5.4, the “LDL-C, EOT (Week 12 endpoint) median” value (Simva subgroup, MITT) was 83.0 and the “Non-HDL-C Median % chg from BL” value (Simva subgroup, MITT) was −4.3%. The “Non-HDL-C, Diff from pbo (Hodges-Lehmann median difference)” value (Simva subgroup, MITT) was −11.1, the “Non-HDL-C, EOT (Week 12 endpoint) median” value (Simva subgroup, MITT) was 125.0 and the “LDL-C Median % chg from BL” value (Statin Potency High, MITT) was 5.4%. For the same compound, the “LDL-C, Diff from pbo (Hodges-Lehmann median difference)” value (Statin Potency High, MITT) was −2.9, the “LDL-C, EOT (Week 12 endpoint) median” value (Statin Potency High, MITT) was 82.0 and the “Non-HDL-C Median % chg from BL” value (Statin Potency High, MITT) was −6.3%. The “Non-HDL-C, Diff from pbo (Hodges-Lehmann median difference)” value (Statin Potency High, MITT) was −15.8, the “Non-HDL-C, EOT (Week 12 endpoint) median” value (Statin Potency High, MITT) was 118 and the “LDL-C Median % chg from BL” value (Statin Potency Low, MITT) was 7.8%. For the same compound, the “LDL-C, Diff from pbo (Hodges-Lehmann median difference)” value (Statin Potency Low, MITT) was 12.4, the “LDL-C, EOT (Week 12 endpoint) median” value (Statin Potency Low, MITT) was 84.5 and the “Non-HDL-C Median % chg from BL” value (Statin Potency Low, MITT) was −1.4%. For the same compound, the “Non-HDL-C, Diff from pbo (Hodges-Lehmann median difference)” value (Statin Potency Low, MITT) was 2.4, the “Non-HDL-C, EOT (Week 12 endpoint) median” value (Statin Potency Low, MITT) was 131 and the “LDL-C Median % chg from BL” value (Statin Potency Medium, MITT) was −2.2%. The “LDL-C, Diff from pbo (Hodges-Lehmann median difference)” value (Statin Potency Medium, MITT) was −10.0, the “LDL-C, EOT (Week 12 endpoint) median” value (Statin Potency Medium, MITT) was 84.0 and the “Non-HDL-C Median % chg from BL” value (Statin Potency Medium, MITT) was −4.3%. For the same compound, the “Non-HDL-C, Diff from pbo (Hodges-Lehmann median difference)” value (Statin Potency Medium, MITT) was −13.9, the “Non-HDL-C, EOT (Week 12 endpoint) median” value (Statin Potency Medium, MITT) was 124 and the “LDL-C Diff from pbo (median % chg, Hodges-Lehmann)” value [1] was −5.3%. The “LDL-C EOT Median” value [1] was 83.5 mg/dL, the “LDL-C Median % chg from BL” value [1] was 1.4% and the “Non-HDL-C Diff from pbo (median % chg, Hodges-Lehmann)” value [1] was −11.3′ %. For the same compound, the “Non-HDL-C EOT Median” value [1] was 126 mg/dL, the “Non-HDL-C Median % chg from BL” value [1] was −0.9% and the “LDL-C Diff from pbo (median % chg, Hodges-Lehmann)” value [2] was −6.3%. For the same compound, the “LDL-C EOT Median” value [2] was 83.0 mg/dL, the “LDL-C Median % chg from BL” value [2] was 2.0% and the “Non-HDL-C Diff from pbo (median % chg, Hodges-Lehmann)” value [2] was −14.4%. The “Non-HDL-C EOT Median” value [2] was 121 mg/dL, the “Non-HDL-C Median % chg from BL” value [2] was −5.5% and the “LDL-C Diff from pbo (median % chg, Hodges-Lehmann)” value [3] was −5.1%. For the same compound, the “LDL-C EOT Median” value [3] was 83.5 mg/dL, the “LDL-C Median % chg from BL” value [3] was 2.5% and the “Non-HDL-C Diff from pbo (median % chg, Hodges-Lehmann)” value [3] was −4.8%. The “Non-HDL-C EOT Median” value [3] was 122 mg/dL, the “Non-HDL-C Median % chg from BL” value [3] was −4.9% and the “LDL-C Diff from pbo (median % chg, Hodges-Lehmann)” value [4] was −7.5%. For the same compound, the “LDL-C EOT Median” value [4] was 80.0 mg/dL, the “LDL-C Median % chg from BL” value [4] was −1.4% and the “Non-HDL-C Diff from pbo (median % chg, Hodges-Lehmann)” value [4] was −14.4%. The “Non-HDL-C EOT Median” value [4] was 124 mg/dL, the “Non-HDL-C Median % chg from BL” value [4] was −5.4% and the “LDL-C Diff from pbo (median % chg, Hodges-Lehmann)” value [5] was 0%. The “LDL-C EOT Median” value [5] was 83.0, the “LDL-C Median % chg from BL” value [5] was 4.8% and the “Non-HDL-C Diff from pbo (median % chg, Hodges-Lehmann)” value [5] was −17.6%. For the same compound, the “Non-HDL-C EOT Median” value [5] was 130, the “Non-HDL-C Median % chg from BL” value [5] was −6.9% and the “LDL-C Diff from pbo (median % chg, Hodges-Lehmann)” value [6] was −12.2%. For the same compound, the “LDL-C EOT Median” value [6] was 83.0, the “LDL-C Median % chg from BL” value [6] was −3.9% and the “Non-HDL-C Diff from pbo (median % chg, Hodges-Lehmann)” value [6] was −13.8%. For the same compound, the “Non-HDL-C EOT Median” value [6] was 118, the “Non-HDL-C Median % chg from BL” value [6] was −2.0% and the “LDL-C Diff from pbo (median % chg, Hodges-Lehmann)” value [7] was −5.8%. For the same compound, the “LDL-C EOT Median” value [7] was 82.5, the “LDL-C Median % chg from BL” value [7] was 2.1% and the “Non-HDL-C Diff from pbo (median % chg, Hodges-Lehmann)” value [7] was −9.5%. The “Non-HDL-C EOT Median” value [7] was 124, the “Non-HDL-C Median % chg from BL” value [7] was −4.0% and the “HDL-C Week 12 EP Median (IQR)” value (AMR101 4 g/d + statin, MITT) was 37.0 (13.0) mg/dL. The “LDL-C Week 12 EP Median (IQR)” value (AMR101 4 g/d + statin, MITT) was 83.0 (31.0) mg/dL, the “Non-HDL-C Week 12 EP Median (IQR)” value (AMR101 4 g/d + statin, MITT) was 122.0 (39.0) mg/dL and the “RLP-C Week 12 EP Median (IQR)” value (AMR101 4 g/d + statin, MITT) was 10.0 (6.0) mg/dL. The “Total cholesterol Week 12 EP Median (IQR)” value (AMR101 4 g/d + statin, MITT) was 162.0 (38.0) mg/dL, the “VLDL-C Week 12 EP Median (IQR)” value (AMR101 4 g/d + statin, MITT) was 38.0 (22.0) mg/dL and the “VLDL-TG Week 12 EP Median (IQR)” value (AMR101 4 g/d + statin, MITT) was 147.0 (88.0) mg/dL. For the same compound, the “HDL-C Percent change from Baseline Median (IQR)” value [8] was −1.0 (18.2) %, the “LDL-C Percent change from Baseline Median (IQR)” value [8] was 1.5 (26.6) % and the “Non-HDL-C Percent change from Baseline Median (IQR)” value [8] was −5.0 (21.3) %. The “RLP-C Percent change from Baseline Median (IQR)” value [8] was −24.0 (45.5) %, the “Total cholesterol Percent change from Baseline Median (IQR)” value [8] was −3.2 (16.8) % and the “VLDL-C Percent change from Baseline Median (IQR)” value [8] was −12.1 (47.9) %. The “VLDL-TG Percent change from Baseline Median (IQR)” value [8] was −19.2 (46.2) %, the “HDL-C Difference from placebo Estimated median” value [9] was −4.5% and the “LDL-C Difference from placebo Estimated median” value [9] was −6.2%. The “Non-HDL-C Difference from placebo Estimated median” value [9] was −13.6%, the “RLP-C Difference from placebo Estimated median” value [9] was −25.8% and the “Total cholesterol Difference from placebo Estimated median” value [9] was −12.0%. The “VLDL-C Difference from placebo Estimated median” value [9] was −24.4%, the “VLDL-TG Difference from placebo Estimated median” value [9] was −26.5% and the “HDL-C, Change From Baseline, % (median)” value [10] was −2.2%. The “HDL-C, End of Treatment (median)” value [10] was 36.5 mg/dL, the “LDL-C, Change From Baseline, % (median)” value [10] was 2.1% and the “LDL-C, End of Treatment (median)” value [10] was 83.0 mg/dL. The “Non-HDL-C, Change From Baseline, % (median)” value [10] was −5.1%, the “Non-HDL-C, End of Treatment (median)” value [10] was 122.0 mg/dL and the “HDL-C, Median Change From Baseline IPE 4 g/day vs Placebo, %” value [11] was −5.0%. For the same compound, the “LDL-C, Median Change From Baseline IPE 4 g/day vs Placebo, %” value [11] was −5.2% and the “Non-HDL-C, Median Change From Baseline IPE 4 g/day vs Placebo, %” value [11] was −13.5%.
